Consider 6 compounds from article PMC9697135 (International Journal of Molecular Sciences, 2022).

Each structure is given as a SMILES string. Like-named read-outs stand apart in the source and are kept apart here.

In one data set the target is human nSMase2. The conditions noted are these: cited from earlier work; for IC50: nSMase2 inhibition.
The test system of another data set is WNV. The data set is described as follows: Antiviral activity, virus yield by plaque assay (WNV). The conditions noted are these: West Nile virus, MOI 1 PFU/cell, virus yield at 24 h post-infection. Type of data set: cell-based.
Data set [1] can be described thus: in vitro. The following applies: human.
Data set [2] in a line: in vitro. The conditions noted are these: African green monkey.
In the next data set the test system is ZIKV. Description: Antiviral activity, virus yield by plaque assay (ZIKV). Type of data set: cell-based. The conditions noted are these: Zika virus, 24 h, read-out: EC50 ZIKV.

As usually defined, the Ki is a measure of affinity in units of concentration, obtained from inhibition or displacement. Turning to `COc1cc(O)c(C(=O)O)c(-c2cc(O)c(O)cc2C)c1` [Altenusin], on human nSMase2 (non-competitive inhibitor of human nSMase2), the Ki was 20 µM.
As usually defined, the EC50 is the concentration that produces a half-maximal response. Take `COc1cc(-c2nc(-c3cccs3)c(-c3ccccc3)[nH]2)cc(OC)c1O` [DPTIP]: the EC50 is 2.81 µM with WNV (HeLa cells), 0.26 µM with WNV (Vero cells), 1.84 µM with ZIKV (HeLa) and 1.56 µM with ZIKV (Vero). For the same compound, the CC50 worked out at 15.1 µM in the data set “in vitro [1]” and 54.8 µM in “in vitro [2]”.
For orientation: IC50 means the midpoint of a concentration-inhibition curve. `COc1cc(-c2nc(-c3cccs3)c(-c3ccccc3)[nH]2)cc(OC)c1OC` [compound 8]: in the data set with human nSMase2 (SAR of DPTIP derivatives), the “nSMase2 inhibitory activity (in words)” value is “completely inactive” and the IC50 was greater than 100 µM.
Regarding `COc1cc(-c2nc(-c3cccs3)c(-c3ccccc3)n2C)cc(OC)c1O` [compound 9], in the data set with human nSMase2 (SAR of DPTIP derivatives), the IC50 is 40 µM.
For the compound `Oc1c(OC2CCCC2)cc(-c2nc(-c3cccs3)c(-c3ccccc3)[nH]2)cc1OC1CCCC1` [compound 10], the IC50 in the data set with human nSMase2 (SAR of DPTIP derivatives) was 0.12 µM.
For the compound `CC(C)(C)Oc1cc(-c2nc(-c3cccs3)c(-c3ccccc3)[nH]2)cc(OC(C)(C)C)c1O` [compound 11], in the data set with human nSMase2 (SAR of DPTIP derivatives), the IC50 was 0.52 µM.
